Among the test systems are HT29 colon; ACHN renal; OVCAR-8 ovarian; SNB-19 CNS; SF-295 CNS; HCT-15 colon; MALME-3M melanoma; SK-MEL-2 melanoma; HCT-116 colon; NCI-H226 lung.
Assay in all cases: NCI tumour cell line growth inhibition, 48 h

Each structure is given as a SMILES string. Values joined by “and” are separate entries in the source; they are usually repeats but may differ in a detail not shown here. Equal entries are not always repeated.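 These data come from cells grown in 96-well plates and exposed to compound for 48 hours at five concentrations. Here, GI50 denotes the concentration required for 50% inhibition of growth. TGI denotes the concentration required for complete inhibition of growth.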

In the case of `CC[C@@]1(O)C(=O)OCc2c1cc1n(c2=O)Cc2cc3cc(N)ccc3nc2-1`, the GI50 is 17.6 nM and 22.5 nM with HT29 colon; 21.8 nM in the assay on OVCAR-8 ovarian; 16.9 nM and < 11.9 nM in the assay with SNB-19 CNS; 2.07 nM in the assay on SF-295 CNS; 214 nM and 102 nM in the assay with HCT-15 colon; 101 nM and 37 nM in the assay on MALME-3M melanoma. Further, the GI50 is 528 nM and 311 nM in the assay with SK-MEL-2 melanoma; 7.42 nM and 14.3 nM in the assay on NCI-H226 lung. The TGI in the assay on ACHN renal is 0.108 µM and 0.013 µM; with OVCAR-8 ovarian, 0.412 µM and 0.198 µM; in the assay with SNB-19 CNS it was 4.11 µM and > 29.4 µM; with SF-295 CNS it was 0.0717 µM and 0.055 µM; with MALME-3M melanoma it was 1.21 µM and 0.478 µM; in the assay with SK-MEL-2 melanoma it was 1.58 µM. The TGI in the assay on HCT-116 colon was 1.65 µM; in the assay on NCI-H226 lung, 0.111 µM and 0.108 µM.

As for `CN=C1SC(=Nc2ccc(N(C)C)cc2)N1C`, the TGI with HT29 colon, with OVCAR-8 ovarian, in the assay on SNB-19 CNS, in the assay with SF-295 CNS, in the assay on HCT-15 colon and with MALME-3M melanoma was over 100 µM throughout. The TGI in the assay with SK-MEL-2 melanoma was 76.6 µM; in the assay with HCT-116 colon it was over 100 µM; in the assay on NCI-H226 lung, over 100 µM.

For the molecule `COc1ccc(Cn2c(Cl)c(/C=C3/C(=O)Nc4ccccc43)c3cc(OC)c(C)cc32)cc1`, the GI50 with HT29 colon is 4100 nM; with ACHN renal it was 8110 nM; with OVCAR-8 ovarian, 5960 nM; in the assay with SNB-19 CNS, 4090 nM; with SF-295 CNS it was 2920 nM; with HCT-15 colon, 4150 nM. Besides, the GI50 with MALME-3M melanoma is 9440 nM; in the assay on SK-MEL-2 melanoma, 19800 nM; with HCT-116 colon, 3770 nM; with NCI-H226 lung, 2920 nM. The TGI in the assay on HT29 colon is over 100 µM; with ACHN renal it was over 100 µM; in the assay with OVCAR-8 ovarian, over 100 µM; in the assay on SNB-19 CNS, over 100 µM; with SF-295 CNS, 24.2 µM; in the assay with HCT-15 colon, over 100 µM. The TGI in the assay with MALME-3M melanoma is over 100 µM; with SK-MEL-2 melanoma it was over 100 µM; in the assay with HCT-116 colon, 39.1 µM; in the assay with NCI-H226 lung, 8.32 µM.

In the case of `FCc1ncc(-c2ccc(C(F)(F)F)cc2)c(NC2CCCCCC2)n1`, the GI50 in the assay on HT29 colon, with ACHN renal, with OVCAR-8 ovarian, in the assay on SNB-19 CNS, in the assay on SF-295 CNS and in the assay with HCT-15 colon was over 10000 nM each time. The GI50 with MALME-3M melanoma, in the assay on SK-MEL-2 melanoma, with HCT-116 colon and in the assay with NCI-H226 lung was over 10000 nM in each case. The TGI in the assay on HT29 colon, with ACHN renal, in the assay with OVCAR-8 ovarian, in the assay with SNB-19 CNS, in the assay with SF-295 CNS and with HCT-15 colon was over 10 µM in each case. The TGI with MALME-3M melanoma, in the assay on SK-MEL-2 melanoma, in the assay on HCT-116 colon and in the assay on NCI-H226 lung was over 10 µM in each case.

As for `CCN(CC)CCNc1n[n+]([O-])c2ccccc2[n+]1[O-]`, the TGI in the assay with HT29 colon is 39.2 µM and 42.7 µM; in the assay with ACHN renal, 18.4 µM and 21.1 µM; in the assay on OVCAR-8 ovarian, 31.1 µM and 27 µM; in the assay with SNB-19 CNS, > 72.1 µM and 56 µM; in the assay on SF-295 CNS it was 39.5 µM and 23.9 µM; with HCT-15 colon, 26.1 µM and 25 µM. In addition, the TGI with MALME-3M melanoma was 20.7 µM and 20.8 µM; in the assay on SK-MEL-2 melanoma, 13.2 µM and 19.1 µM; in the assay with HCT-116 colon it was 26.6 µM and 31 µM; in the assay with NCI-H226 lung, 23.7 µM and 29.9 µM. Besides, the GI50 in the assay on SK-MEL-2 melanoma is 2340 nM and 5130 nM.

Take `O=[N+]([O-])c1nccn1COCCBr`: the TGI with HT29 colon, in the assay with ACHN renal, in the assay on OVCAR-8 ovarian, in the assay with SNB-19 CNS, in the assay with SF-295 CNS and with HCT-15 colon was over 100 µM each time. The TGI in the assay with MALME-3M melanoma, in the assay with SK-MEL-2 melanoma, in the assay on HCT-116 colon and in the assay with NCI-H226 lung was over 100 µM in each case.

For `COC(=O)CCC1=C(C)/C(=C/c2[nH]c(-c3ccc[nH]3)cc2OC)N=C1C`, the GI50 in the assay with HT29 colon is 267 nM; in the assay with ACHN renal it was 840 nM; in the assay on OVCAR-8 ovarian, 390 nM; with SNB-19 CNS, 2020 nM; with SF-295 CNS it was 833 nM; with HCT-15 colon it was 265 nM. The GI50 is 1140 nM in the assay with MALME-3M melanoma, 273 nM in the assay on SK-MEL-2 melanoma, 331 nM with HCT-116 colon and 380 nM with NCI-H226 lung. For the same molecule, the TGI in the assay on HT29 colon turned out to be 2.03 µM; in the assay with ACHN renal, 3.75 µM; in the assay with OVCAR-8 ovarian it was 6.69 µM; in the assay on SNB-19 CNS, 17.5 µM; with SF-295 CNS, 3.64 µM; in the assay with HCT-15 colon, 1.95 µM. In addition, the TGI in the assay with MALME-3M melanoma was found to be 3.27 µM; in the assay with SK-MEL-2 melanoma, 0.813 µM; in the assay with HCT-116 colon, 1.41 µM; in the assay on NCI-H226 lung it was 1.6 µM.

Regarding `CN[C@@H]1C[C@H]2O[C@@](C)([C@@H]1OC)n1c3ccccc3c3c4c(c5c6ccccc6n2c5c31)C(=O)N[C@@H]4O`, the GI50 was 47.5 nM in the assay on HT29 colon; 5.26 nM and < 15.1 nM with ACHN renal; 35.4 nM with OVCAR-8 ovarian; 50.2 nM in the assay on SNB-19 CNS; 36.7 nM with SF-295 CNS; 55.6 nM with HCT-15 colon. Moreover, the GI50 in the assay on MALME-3M melanoma is 15.4 nM; in the assay on SK-MEL-2 melanoma, 34.8 nM; in the assay with NCI-H226 lung it was 49.2 nM. Moreover, the TGI in the assay with OVCAR-8 ovarian was 0.164 µM and 0.719 µM; in the assay with SNB-19 CNS, 0.161 µM and 0.77 µM; with SF-295 CNS, 0.3 µM and 0.204 µM; in the assay with HCT-15 colon it was 0.3 µM and 1.33 µM; with MALME-3M melanoma it was 0.0589 µM and 0.461 µM; with SK-MEL-2 melanoma, 0.245 µM and 0.123 µM. For the same molecule, the TGI with HCT-116 colon is 2.42 µM; with NCI-H226 lung, 0.3 µM and 0.477 µM.

In the case of `COc1ccc(Cl)cc1Nc1nc(C(F)(F)F)ccc1C(=O)N/N=C/c1cc(OC)c(OC)c(OC)c1`, the GI50 is 3730 nM with HT29 colon; 3280 nM in the assay with ACHN renal; 1590 nM with OVCAR-8 ovarian; 2440 nM with SNB-19 CNS; 1090 nM in the assay on SF-295 CNS; 1230 nM in the assay on HCT-15 colon. The GI50 with MALME-3M melanoma is 1070 nM; in the assay with SK-MEL-2 melanoma, 1760 nM; in the assay on HCT-116 colon it was 2410 nM; with NCI-H226 lung, 3350 nM. Also, the TGI in the assay on HT29 colon was found to be 13.2 µM; in the assay with ACHN renal, 11.3 µM; with OVCAR-8 ovarian, 4.89 µM; in the assay with SNB-19 CNS, 19.5 µM; with SF-295 CNS, 2.92 µM; with HCT-15 colon, 11.9 µM. Further, the TGI amounted to 4.05 µM with MALME-3M melanoma, 5.35 µM in the assay on SK-MEL-2 melanoma, 7.66 µM with HCT-116 colon and 12.6 µM in the assay with NCI-H226 lung.
